Source: patent publication US11970480
Read-outs that look alike come from different tables or passages of the source.

Assays:
[1] = 21-membered ring
[2] = from 5,5′-(propane-1,3-diylbis(oxy))bis(4-chloro-3-nitrobenzamide) + butane-1,4-diamine; snar bond; 15-membered ring; DIEA; DMSO; 714.0 mM; 120.0 °C; 2 steps
[3] = amide bond, 2 steps

Which ring closure, yield of all isomers (from C=CCn1c(NC(=O)c2cc(C)nn2CCCCCc2c(C)nn(CC)c2C(=O)Nc2nc3cc(C(N)=O)ccc3n2CC=C)nc2cc(C(N)=O)ccc21, rcm bond, Hoveyda-Grubbs II, 1,2-dichloroethane, 2.69 mM, 100.0 °C, 4.0 h) does the source give for `CCn1nc(C)c2c1C(=O)Nc1nc3cc(C(N)=O)ccc3n1CC=CCn1c(nc3cc(C(N)=O)ccc31)NC(=O)c1cc(C)nn1CCCCC2` here?
The ring closure, yield of all isomers was 35%.

And the ring closure, isolated yield ([1]; from C=CCn1c(NC(=O)c2cc(C)nn2CCCCCc2c(C)nn(CC)c2C(=O)Nc2nc3cc(C(N)=O)ccc3n2CC=C)nc2cc(C(N)=O)ccc21, rcm bond, Hoveyda-Grubbs II (20 mol%), DCE, 2.69 mM, 100.0 °C)?
Its ring closure, isolated yield is 35%.

With `CCn1nc(C)c2c1C(=O)Nc1nc3cc(C(N)=O)ccc3n1CCCCn1c(nc3c(CNC(=O)OC(C)(C)C)cccc31)NC(=O)c1cc(C)nn1CCCCC2` as the molecule, how does the ring closure, yield of all isomers (from CCn1nc(C)c(CCCCCn2nc(C)cc2C(=O)Nc2nc3c(CNC(=O)OC(C)(C)C)cccc3n2CCCCn2c(N)nc3cc(C(N)=O)ccc32)c1C(=O)O, amide bond, EDC/HOBt, DIEA, cat. DMAP, DMF, 18.2 mM, 60.0 °C, 6.0 h) read?
Its ring closure, yield of all isomers is 56%.

And the ring closure, isolated yield ([1]; from CCn1nc(C)c(CCCCCn2nc(C)cc2C(=O)Nc2nc3c(CNC(=O)OC(C)(C)C)cccc3n2CCCCn2c(N)nc3cc(C(N)=O)ccc32)c1C(=O)O, amide bond, EDC/HOBt/DIEA/DMAP, DMF, 18.2 mM, 60.0 °C)?
The ring closure, isolated yield was 56%.

What does the source list for `CCn1nc(C)c2c1C(=O)Nc1nc3cc(C(N)=O)ccc3n1CCCCn1c(nc3c(N(C)Cc4ccc(OC)cc4)cccc31)NC(=O)c1cc(C)nn1CCCCC2`?
ring closure, yield of all isomers (from CCn1nc(C)c(CCCCCn2nc(C)cc2C(=O)Nc2nc3c(N(C)Cc4ccc(OC)cc4)cccc3n2CCCCn2c(N)nc3cc(C(N)=O)ccc32)c1C(=O)O, amide bond, EDC/HOBt/DMAP, DMF, 23.7 mM, 60.0 °C, 32.0 h): 20.4%; ring closure, isolated yield ([1]; from CCn1nc(C)c(CCCCCn2nc(C)cc2C(=O)Nc2nc3c(N(C)Cc4ccc(OC)cc4)cccc3n2CCCCn2c(N)nc3cc(C(N)=O)ccc32)c1C(=O)O, amide bond, EDC/HOBt/DMAP, DMF, 23.7 mM, 60.0 °C): 20.4%

With `NC(=O)c1cc2c(c([N+](=O)[O-])c1)NCCCCNc1c(cc(C(N)=O)cc1[N+](=O)[O-])OCCCO2` as the molecule, how does the ring closure, crude yield [2] read?
Its ring closure, crude yield is 90%.

For “2-amino-1-(3-(3-(2-(2-amino-5-carbamoyl-1H-benzo[d]imidazol-1-yl)ethyl)phenyl)-propyl)-1H-benzo[d]imidazole-5-carboxamide + 4-(5-(5-carboxy-3-methyl-1H-pyrazol-1-yl)pentyl)-1-ethyl-3-methyl-1H-pyrazole-5-carboxylic acid”, which ring closure, yield after HPLC ([3]; the molecule shown is the open-chain precursor, 25-membered ring, HATU, NMP, 40.3 mM, 40.0 °C) is on record?
The ring closure, yield after HPLC was 0.6%.

Which ring closure, yield after HPLC ([3]; 21-membered ring, HATU, NMP, 51.0 mM, 40.0 °C) does the source give for “8-Ethyl-10,13,13,18-tetramethyl-7,20-dioxo-6,7,8,11,12,13,14,15,20,21,28,29,30,31-tetradecahydrobenzo[4,5]imidazo[1,2-a]benzo[4,5]imidazo[2,1-p]dipyrazolo[5,1-e:4′,3′-1][1,3,6,15,17]pentaazacyclohenicosine-3,24-dicarboxamide” here?
Its ring closure, yield after HPLC is 3.4%.

Which ring closure, yield after HPLC ([3]; 20-membered ring, HATU/DIEA, NMP, 61.5 mM, 120.0 °C) does the source give for “8-Ethyl-10,17-dimethyl-7,19-dioxo-7,8,11,12,13,14,19,20,27,28,29,30-dodecahydro-6H-benzo[4,5]imidazo[1,2-a]benzo[4,5]imidazo[2,1-o]dipyrazolo[5,1-e:4′,3′-k][1,3,6,14,16]pentaazacycloicosine-3,23-dicarboxamide” here?
The ring closure, yield after HPLC was 2%.

For “8-Ethyl-10,18-dimethyl-7,20-dioxo-6,7,8,11,14,15,20,21,28,29,30,31-dodecahydrobenzo[4,5]imidazo[1,2-a]benzo[4,5]imidazo[2,1-p]dipyrazolo[5,1-e:4′,3′-1][1,3,6,15,17]pentaazacyclohenicosine-3,24-dicarboxamide”, which ring closure, yield after HPLC ([3]; 21-membered ring, HATU/DIEA, NMP, 92.4 mM, 80.0 °C) is on record?
The ring closure, yield after HPLC was 1.7%.

For “8-ethyl-10,18,30-trimethyl-7,20-dioxo-7,8,11,12,13,14,15,20,21,28,29,30,31,32-tetradecahydro-benzo[4,5]imidazo[2,1-b]benzo[4,5]imidazo[1,2-l]dipyrazolo[5,1-m:4′,3′-t][1,3,6,9,11,14]hexaazacyclodocosine-3,24-dicarboxamide”, which ring closure, yield after HPLC ([3]; 22-membered ring, HATU/DIEA, NMP, 68.9 mM, 140.0 °C) is on record?
The ring closure, yield after HPLC was 4.56%.

With “(1r,39r)-14-ethyl-16,25-dimethyl-12,28-dioxo-2,9,11,14,15,23,24,29,31,38-decaazaoctacyclo[37.2.2.0^2,^1^0.0^3,^8.0^13,^1^7.0^23,^2^7.0^3^0,^3^8.0^32,^3^7]tritetraconta-3,5,7,9,13(17),15,24,26,30,32,34,36-dodecaene-6,34-Dicarboxamide” as the molecule, how does the ring closure, isolated yield ([1]; amide bond, HATU/DIEA, DMF, 116.0 mM, 80.0 °C, 2 steps) read?
The ring closure, isolated yield was 0.3%.

With “(E)-1,26-Dibromo-8-ethyl-10,18-dimethyl-7,20-dioxo-6,7,8,11,12,13,14,15,20,21,28,31-dodecahydrobenzo[4,5]imidazo[1,2-a]benzo[4,5]imidazo[2,1-p]dipyrazolo[5,1-e:4′,3′-1][1,3,6,15,17]pentaazacyclohenicosine-3,24-dicarboxamide” as the molecule, how does the ring closure, isolated yield ([1]; amide bond, HATU/DIEA, DMF, 59.3 mM, 90.0 °C, 2 steps) read?
Its ring closure, isolated yield is 24%.

Which ring closure, yield after HPLC ([3]; 21-membered ring, HATU/TEA, DMF, 24.4 mM, 100.0 °C) does the source give for “(E)-8-Ethyl-1,26-dimethoxy-10,18-dimethyl-7,20-dioxo-6,7,8,11,12,13,14,15,20,21,28,31-dodecahydrobenzo[4,5]imidazo[1,2-a]benzo[4,5]imidazo[2,1-p]dipyrazolo[5,1-e:4′,3′-1][1,3,6,15,17]pentaazacyclohenicosine-3,24-dicarboxamide, bis trifluoroacetic acid salt” here?
Its ring closure, yield after HPLC is 1%.
